Test results published in US20250066370A1, “BICYCLIC TRIAZINE DERIVATIVES FOR THE TREATMENT OF CANCER” (DEUTSCHES KREBSFORSCHUNGSZENTRUM, priority 2022, published 2025).

Experiments:
[1] = system: BRCA1 mRNA expression in MDA-MB-231 cells; assay: qRT-PCR assay: inhibition of BRCA1 mRNA expression in MDA-MB-231 cells; type: cell-based; details: Homo sapiens, 24 h exposure, BRCA1 normalised to GAPDH, median, read-out: RTqPCR-MDA-MB-231, IC50 [mol/l], BRCA1 (median)
Experimental: 3. qRT-PCR Assay: BRCA1, ATR, MCL1 in MDA-MB-231, CAL-120
Tissue cultured human MDA-MB-231 human breast cancer cells were plated in 500 microL per well at 200,000 cells/well in a 24 well microtiter plate. After 24 h, the cells were exposed continuously for 24 h to test substances (substances were added with Tecan HP D300 Dispenser). RNA was prepared using Qiagen RNeasy MiniKit (#74106), RNA was quantified using a NanoDrop Equipment, and 600 nano grams of RNA was converted to cDNA using a SuperScript VILO kit (Thermofisher #11755050) followed by qPCR amplification. BRCA1 and ATR gene expression was measured by RT-qPCR and normalised to GAPDH housekeeping gene expression. qPCR primer sets have been purchased from Thermo Fisher Scientific/Applied Biosystems: BRCA1, #Hs 01556193; ATR. #Hs 00992123: GAPDH. #Hs 03929097.

CYCLIN K = CYCLIN K nuclear protein level: immunofluorescence/high content analysis in CAL-120 cells; type: cell-based, human; details: 24 h, nuclear CCNK staining intensity, median, read-out: CYCLIN K degradation IF, DC50 - [mol/l] (median)
Experimental: CAL-120 human breast cancer cells (DSMZ ACC 459) are seeded in 1536-well microtiter plates (800 cells per well) containing 50 nanoL of compounds in Dose-Response. Control wells received DMSO or Example 4. Plates are then incubated for 24 h at 37° C. in an humidified incubator and fixed with 4% PFA for 10 min. Then immunofluorescence (IF) against CYCLIN K (ThermoFisher Scientific CCNK Antibody #PA5-85020, rabbit, 1:200 dilution) is performed using standard IF protocols. Cells are then stained with Hoechst 33342 (Life Technologies, H-1399, 0.1 microg/ml) and imaged on an automated confocal microscopy system (e.g. Perkin Elmer Opera Phenix). Nuclear and cytoplasmic intensity as well as the nuclear/cytoplasmic intensity ratio is determined by automated image analysis using custom generated scripts (MetaXpress). Data is then transferred to Genedata Screener software, normalized to DMSO and control and DC50 values (degrading concentration to achieve 50% reduction of nuclear CCNK staining intensity relative to controls) are reported.

CAL-120-CDK12d-res = assay: Proliferation assay CDK12 degrader resistant CAL-120; type: cell-based, human; details: for IC50: Homo sapiens, 96 h, CDK12 degrader resistant CAL-120 cells, 4 days, median, read-out: Prolif-CAL-120-CDK12d-res, IC50 - [mol/l] (median); for Ratio (Prolif-CAL-120-CDK12d-res IC50 / Prolif-CAL-120 IC50): resistant versus parental CAL-120 cells
Description: (§1) CDK12-degrader resistant cells were generated by propagation of CAL-120 human breast adenocarcinoma cells (DSMZ ACC-459) and MDA-MB-231 human breast cancer cells (ATCC HTB-26) in presence of increasing concentrations of the CDK12 degrader compound example 4 from WO 2021/116178. Initial concentrations of example 4 were 2.0E-08 M for CAL-120 cells and 4.6E-08 M for MDA-MB-231 cells, corresponding to ca. 2-fold the IC50 of inhibition of the cells in an proliferation assay. After the treated cells recovered and proliferated again the concentration of compound example 4 was increased to 3-fold IC50.
(§2) To determine the inhibitory effect of test compounds on proliferation of CAL-120-CDK12d-res, MDA-MB-231-CDK12d-res the cells were plated at a density of 4,000 cells/well in a 96-well multitier plate in 200 microL of their respective growth medium supplemented 10% fetal calf serum. After 24 hours, the cells of one plate (zero-point plate) were stained with crystal violet (see below), while the medium of the other plates was supplemented with the test substances in various concentrations (0 micromol/L, as well as in the range of 0.01-10 micromol/L; the final concentration of the solvent dimethyl sulfoxide was adjusted to 0.1%) using a Tecan HP D300 Digital Dispenser. The cells were incubated for 4 days in the presence of test substances. Cell proliferation was determined by staining the cells with crystal violet: the cells were fixed by adding 20 microL/measuring point of an 11% glutaric aldehyde solution for 15 minutes at room temperature. After three washing cycles of the fixed cells with water, the plates were dried at room temperature. The cells were stained by adding 100 microL/measuring point of a 0.1% crystal violet solution (pH 3.0). After three washing cycles of the stained cells with water, the plates were dried at room temperature. The dye was dissolved by adding 100 microL/measuring point of a 10% acetic acid solution. The extinction was determined by photometry at a wavelength of 595 nm. The change of cell number, in percent, was calculated by normalization of the measured values to the extinction values of the zero-point plate (=0%) and the extinction of the untreated (0 μM) cells (=100%). The IC50 values (inhibitory concentration at 50% of maximal effect) were determined by means of a 4 parameter fit.

MDA-MB-231-CDK12d-res = assay: Proliferation assay CDK12 degrader resistant MDA-MB-231; type: cell-based, human; details: for IC50: Homo sapiens, 96 h, CDK12 degrader resistant MDA-MB-231 cells, 4 days, median, read-out: Prolif-MDA MB-231-CDK12d-res, IC50 - [mol/] (median); for Ratio (Prolif-MDA MB-231-CDK12d-res IC50 / Prolif-MDA MB-231 IC50): resistant versus parental MDA-MB-231 cells
Description: as §1, §2

SMILES | IC50 [1] [nM] | DC50 (CYCLIN K) [nM] | IC50 (CAL-120-CDK12d-res) [nM] | Ratio (Prolif-CAL-120-CDK12d-res IC50 / Prolif-CAL-120 IC50) (CAL-120-CDK12d-res) | IC50 (MDA-MB-231-CDK12d-res) [nM] | Ratio (Prolif-MDA MB-231-CDK12d-res IC50 / Prolif-MDA MB-231 IC50) (MDA-MB-231-CDK12d-res)
FC(F)(F)Oc1ccc(-c2nnc(CNc3nc(N4CCOCC4)nc4c(C(F)(F)F)cnn34)[nH]2)cc1 [Example 5, 2-(morpholin-4-yl)-N-({5-[4-(trifluoromethoxy)phenyl]-4H-1,2,4-triazol-3-yl}methyl)-8-(trifluoromethyl)pyrazolo[1,5-a][1,3,5]triazin-4-amine] | 109 | > 1000 | – | – | – | –
FC(F)(F)c1ccc(-c2nnc(CNc3nc(N4CCOCC4)nc4c(C(F)(F)F)cnn34)[nH]2)cc1 [Example 6, 2-(morpholin-4-yl)-8-(trifluoromethyl)-N-({5-[4-(trifluoromethyl)phenyl]-4H-1,2,4-triazol-3-yl}methyl)pyrazolo[1,5-a][1,3,5]triazin-4-amine] | – | > 1000 | – | – | – | –
FC(F)(F)Oc1ccc(-c2nnc(CNc3nc(N4CCOCC4)nn4c(C(F)(F)F)cnc34)[nH]2)cn1 [Example 19, 2-(morpholin-4-yl)-N-({5-[6-(trifluoromethoxy)pyridin-3-yl]-4H-1,2,4-triazol-3-yl}methyl)-7-(trifluoromethyl)imidazo[2,1-f][1,2,4]triazin-4-amine] | 34.5 | – | 97.1 | 1.5 | 103 | 2.7
FC(F)(F)Oc1ccc(-c2cnc(CNc3nc(N4CCOCC4)nc4c(C(F)(F)F)cnn34)[nH]2)cc1 [Example 10, 2-(morpholin-4-yl)-N-({5-[4-(trifluoromethoxy)phenyl]-1H-imidazol-2-yl}methyl)-8-(trifluoromethyl)pyrazolo[1,5-a][1,3,5]triazin-4-amine] | 37.3 | 228 | 139 | 2.0 | 156 | 1.3
FC(F)(F)c1ccc(-c2cnc(CNc3nc(N4CCOCC4)nc4c(C(F)(F)F)cnn34)[nH]2)cc1 [Example 9, 2-(morpholin-4-yl)-8-(trifluoromethyl)-N-({5-[4-(trifluoromethyl)phenyl]-1H-imidazol-2-yl}methyl)pyrazolo[1,5-a][1,3,5]triazin-4-amine] | 102 | – | 105 | 1.0 | 150 | 0.8
COc1ccc(-c2nnc(CNc3nc(N4CCOCC4)nc4c(C(F)(F)F)cnn34)[nH]2)cn1 [Example 15, N-{[5-(6-methoxypyridin-3-yl)-4H-1,2,4-triazol-3-yl]methyl}-2-(morpholin-4-yl)-8-(trifluoromethyl)pyrazolo[1,5-a][1,3,5]triazin-4-amine] | – | > 1000 | – | – | – | –
FC(F)(F)c1ccc(-c2cnc(CNc3nc(N4CCOCC4)nn4c(C(F)(F)F)cnc34)[nH]2)cc1 [Example 7, 2-(morpholin-4-yl)-7-(trifluoromethyl)-N-({5-[4-(trifluoromethyl)phenyl]-1H-imidazol-2-yl}methyl)imidazo[2,1-f][1,2,4]triazin-4-amine] | – | – | 112 | 1.1 | 156 | 1.7
FC(F)(F)Oc1ccc(-c2cnc(CNc3nc(N4CCOCC4)nn4c(C(F)(F)F)cnc34)[nH]2)cc1 [Example 8, 2-(morpholin-4-yl)-N-({5-[4-(trifluoromethoxy)phenyl]-1H-imidazol-2-yl}methyl)-7-(trifluoromethyl)imidazo[2,1-f][1,2,4]triazin-4-amine] | 38.2 | > 1000 | 173 | 1.9 | 178 | 1.6
COc1ccc(-c2cnc(CNc3nc(N4CCOCC4)nc4c(C(F)(F)F)cnn34)[nH]2)cn1 [Example 21, N-{[5-(6-methoxypyridin-3-yl)-1H-imidazol-2-yl]methyl}-2-(morpholin-4-yl)-8-(trifluoromethyl)pyrazolo[1,5-a][1,3,5]triazin-4-amine] | 98.8 | – | – | – | – | –
FC(F)(F)c1ccc(-c2cnc(CNc3nc(N4CCOCC4)nn4c(C(F)(F)F)cnc34)[nH]2)cn1 [Example 12, 2-(morpholin-4-yl)-7-(trifluoromethyl)-N-({5-[6-(trifluoromethyl)pyridin-3-yl]-1H-imidazol-2-yl}methyl)imidazo[2,1-f][1,2,4]triazin-4-amine] | 7.57 | – | 22.1 | 1.5 | 31 | 1.4
COc1ccc(-c2nnc(CNc3nc(N4CCOCC4)nn4c(C(F)(F)F)cnc34)[nH]2)cn1 [Example 18, N-{[5-(6-methoxypyridin-3-yl)-4H-1,2,4-triazol-3-yl]methyl}-2-(morpholin-4-yl)-7-(trifluoromethyl)imidazo[2,1-f][1,2,4]triazin-4-amine] | 71.5 | > 1000 | 252 | 2.4 | 288 | 4.0
Cc1ccc(-c2nnc(CNc3nc(N4CCOCC4)nn4c(C(F)(F)F)cnc34)[nH]2)cn1 [Example 23, N-{[5-(6-methylpyridin-3-yl)-4H-1,2,4-triazol-3-yl]methyl}-2-(morpholin-4-yl)-7-(trifluoromethyl)imidazo[2,1-f][1,2,4]triazin-4-amine] | 102 | 124 | – | – | – | –
FC(F)(F)c1ccc(-c2nnc(CNc3nc(N4CCOCC4)nc4c(Br)cnn34)[nH]2)cc1 [Example 1, 8-bromo-2-(morpholin-4-yl)-N-({5-[4-(trifluoromethyl)phenyl]-4H-1,2,4-triazol-3-yl}methyl)pyrazolo[1,5-a][1,3,5]triazin-4-amine] | 514 | – | – | – | – | –
FC(F)(F)Oc1ccc(-c2cnc(CNc3nc(N4CCOCC4)nc4c(Br)cnn34)[nH]2)cc1 [Example 4, 8-bromo-2-(morpholin-4-yl)-N-({5-[4-(trifluoromethoxy)phenyl]-1H-imidazol-2-yl}methyl)pyrazolo[1,5-a][1,3,5]triazin-4-amine] | 6.94 | – | – | – | – | –
FC(F)(F)c1ccc(-c2nnc(CNc3nc(N4CCOCC4)nn4c(C(F)(F)F)cnc34)[nH]2)cc1 [Example 11, 2-(morpholin-4-yl)-7-(trifluoromethyl)-N-({5-[4-(trifluoromethyl)phenyl]-4H-1,2,4-triazol-3-yl}methyl)imidazo[2,1-f][1,2,4]triazin-4-amine] | – | > 1000 | – | – | – | –
FC(F)(F)Oc1ccc(-c2nnc(CNc3nc(N4CCOCC4)nc4c(Br)cnn34)[nH]2)cc1 [Example 2, 8-bromo-2-(morpholin-4-yl)-N-({5-[4-(trifluoromethoxy)phenyl]-4H-1,2,4-triazol-3-yl}methyl)pyrazolo[1,5-a][1,3,5]triazin-4-amine] | 272 | – | – | – | – | –
